Measurements taken from ChEMBL document CHEMBL4138267, “Synthesis and SAR of 1,2,3,4-Tetrahydroisoquinoline-Based CXCR4 Antagonists” (ACS Med Chem Lett, 2018).

What was measured:
[1] = Permeability of the compound at pH 7.4 by PAMPA; assay type: ADME
[2] = Permeability of the compound at pH 5.5 by PAMPA; assay type: ADME

SMILES | permeability [1] | permeability [2]
NCCCCN(C[C@H]1Cc2ccccc2CN1)[C@H]1CCCc2cccnc21 | Impermeable | Impermeable
Cc1ccc([C@H](C)N(CCCCN)C[C@H]2Cc3ccccc3CN2)nc1 | Impermeable | Impermeable
COc1cccnc1CN(CCCCN)C[C@H]1Cc2ccccc2CN1 | Impermeable | Impermeable
NCCCCN(Cc1ccc(F)cn1)C[C@H]1Cc2ccccc2CN1 | Impermeable | Impermeable
NCCCCN(Cc1ccc2ccccc2n1)C[C@H]1Cc2ccccc2CN1 | Impermeable | Impermeable
Cc1cc(F)cnc1CN(CCCCN)C[C@H]1Cc2ccccc2CN1 | Impermeable | Impermeable
NCCCCN(Cc1ccc(Cl)cn1)C[C@H]1Cc2ccccc2CN1 | Impermeable | Impermeable
NCCCCN(Cc1ccc(C(F)(F)F)cn1)C[C@H]1Cc2ccccc2CN1 | Impermeable | Impermeable
Cc1cnc2c(c1)CCC[C@@H]2N(CCCCN)C[C@H]1Cc2ccccc2CN1 | Impermeable | Impermeable
NCCCCN(Cc1cc(Cl)ccn1)C[C@H]1Cc2ccccc2CN1 | Impermeable | Impermeable
Cc1cccnc1[C@H](C)N(CCCCN)C[C@H]1Cc2ccccc2CN1 | Impermeable | Impermeable
Cc1ccnc(CN(CCCCN)C[C@H]2Cc3ccccc3CN2)c1 | Impermeable | Impermeable
NCCCCN(Cc1cscn1)C[C@H]1Cc2ccccc2CN1 | Impermeable | Impermeable
NCCCCN(Cc1ncccc1C1CC1)C[C@H]1Cc2ccccc2CN1 | Impermeable | Impermeable
C[C@@H](c1ccccn1)N(CCCCN)C[C@H]1Cc2ccccc2CN1 | Impermeable | Impermeable
Cc1cccc(CN(CCCCN)C[C@H]2Cc3ccccc3CN2)n1 | Impermeable | Impermeable

SMILES | permeability [1] | permeability [2]
NCCCCN(Cc1ncccc1F)C[C@H]1Cc2ccccc2CN1 | Impermeable | Impermeable
Cc1nc(CN(CCCCN)C[C@H]2Cc3ccccc3CN2)cs1 | Impermeable | Impermeable
Cc1cnc(CN(CCCCN)C[C@H]2Cc3ccccc3CN2)c(C)c1 | Impermeable | Impermeable
COc1ccc(CN(CCCCN)C[C@H]2Cc3ccccc3CN2)nc1 | Impermeable | Impermeable
NCCCCN(C[C@H]1Cc2ccccc2CN1)[C@H]1CCOc2cccnc21 | Impermeable | Impermeable
NCCCCN(Cc1nccc2ccccc12)C[C@H]1Cc2ccccc2CN1 | Impermeable | Impermeable
NCCCCN(Cc1ncccc1Cl)C[C@H]1Cc2ccccc2CN1 | Impermeable | Impermeable
Cc1cnc(CN(CCCCN)C[C@H]2Cc3ccccc3CN2)c(F)c1 | Impermeable | Impermeable
Cc1cccnc1CN(CCCCN)C[C@H]1Cc2ccccc2CN1 | Impermeable | Impermeable
NCCCCN(Cc1ncccc1C(F)(F)F)C[C@H]1Cc2ccccc2CN1 | Impermeable | Impermeable
NCCCCN(Cc1ccccn1)C[C@H]1Cc2ccccc2CN1 | Impermeable | Impermeable
Cc1ccc(CN(CCCCN)C[C@H]2Cc3ccccc3CN2)nc1 | Impermeable | Impermeable
NCCCCN(Cc1cc2ccccc2cn1)C[C@H]1Cc2ccccc2CN1 | Impermeable | Impermeable
C=Cc1cccnc1CN(CCCCN)C[C@H]1Cc2ccccc2CN1 | Impermeable | Impermeable
NCCCCN(Cc1nccs1)C[C@H]1Cc2ccccc2CN1 | Impermeable | Impermeable
